These results are taken from patent US20070054887A1, “Methods for treating bladder dysfunction” (BioXell S.p.A, priority 2003, published 2007).

Like-named read-outs stand apart in the source and are kept apart here.

The test system of data set [1] is human bladder cells. The experiment in a line: inhibition of basal human bladder cell growth. The class given is cell-based. Particulars: for IC50: Homo sapiens.
A short description of data set [2]: maximum tolerated dose (MTD) in rats. The class given is in vivo. From the text:
The maximum tolerated dose (MTD) in rats is also listed for each compound.

In general, IC50 refers to the concentration that inhibits the measured activity by half. A word on the MTD: it is the largest dose that counted as tolerated. `CC(=O)OC1C/C(=C/C=C2\CCC[C@@]3(C)C2CCC3C2(CC#CC(OC(C)=O)(C(F)(F)F)C(F)(F)F)CC2)C[C@@H](OC(C)=O)C1` (some centres unmarked) [1,3,25-Tri-O-acetyl-1,25-dihydroxy-20-cyclopropyl-23-yne-26,27-hexafluoro-19-nor-cholecalciferol] had an IC50 in data set [1] of 0.0398 µM. Moreover, in data set [2] (rat, in vivo, read-out: MTD), the MTD turned out to be 10 µg/kg. In the same order, the values of `CC(=O)OC1C/C(=C/C=C2\CCC[C@]3(C)C(C(C)CC#CC(C)(C)O)=CCC23)C[C@@H](OC(C)=O)C1` (some centres unmarked) [1,3-Di-O-Acetyl-1,25-dihydroxy-16-ene-23-yne-19-nor-cholecalciferol] are 186 µM and 30 µg/kg. For `C=C1/C(=C\C=C2/CCC[C@]3(C)C(C(C)C/C=C/C(C)(C)O)=CCC23)CC(OC(C)=O)C[C@@H]1OC(C)=O` (some centres unmarked) [1,3-Di-O-acetyl-1,25-dihydroxy-16,23E-diene-cholecalciferol], in that order: 4.17e-06 µM and 3 µg/kg. In the same order, the values of `CC(=O)OC1C/C(=C/C=C2\CCC[C@]3(C)C(C(C)CCCC(C)(C)O)=CCC23)C[C@@H](OC(C)=O)C1` (some centres unmarked) [1,3-Di-O-acetyl-1,25-dihydroxy-16-ene-19-nor-cholecalciferol] are 0.000631 µM and 3 µg/kg. In data set [1], `C=C1/C(=C\C=C2/CCC[C@]3(C)C(C(C)CC#CC(O)(C(F)(F)F)C(F)(F)F)=CCC23)CC(OC(C)=O)C[C@@H]1OC(C)=O` (some centres unmarked) [1,3-Di-O-acetyl-1,25-dihydroxy-16-ene-23-yne-26,27-hexafluoro-cholecalciferol] gave an IC50 of 0.002 µM. The MTD in data set [2] (rat, in vivo, read-out: MTD) was 10 µg/kg. `C=C1/C(=C\C=C2/CCC[C@]3(C)C(C(C)CC#CC(C)(C)O)=CCC23)CC(OC(C)=O)C[C@@H]1OC(C)=O` (some centres unmarked) [1,3-Di-O-acetyl-1,25-dihydroxy-16-ene-23-yne-cholecalciferol] gave an IC50 in data set [1] of 5.01e-05 µM. For the same molecule, in data set [2] (rat, in vivo, read-out: MTD), the MTD was determined as 10 µg/kg.

The molecule `C=C1/C(=C\C=C2/CCC[C@]3(C)C(C(C)CCCC(C)(C)O)=CCC23)CC(OC(C)=O)C[C@@H]1OC(C)=O` (some centres unmarked) [1,3-Di-O-acetyl-1,25-dihydroxy-16-ene-cholecalciferol] showed an IC50 in data set [1] of 0.000224 µM. Further, the MTD in data set [2] (rat, in vivo, read-out: MTD) stood at 1 µg/kg.

The molecule `CC(=O)OC1C/C(=C/C=C2\CCC[C@@]3(C)C2CCC3C2(CC#CC(O)(C(F)(F)F)C(F)(F)F)CC2)C[C@@H](OC(C)=O)C1` (some centres unmarked) [1,3-Di-O-acetyl-1,25-dihydroxy-20-cyclopropyl-23-yne-26,27-hexafluoro-19-nor-cholecalciferol] gave an IC50 in data set [1] of 0.0012 µM. Moreover, the MTD in data set [2] (rat, in vivo, read-out: MTD) came to 10 µg/kg. With `C=C1C(=CC=C2CCCC3(C)C2CCC3C2(CC#CC(C)(C)O)CC2)CC(OC(C)=O)CC1OC(C)=O` (centres unmarked) [1,3-Di-O-acetyl-1,25-dihydroxy-20-cyclopropyl-23-yne-cholecalciferol], in data set [1] (basal human bladder cell growth, cells not stimulated with testosterone), the “−Log IC50” value is on record as above 2. Further, in data set [2], the MTD was 30 µg/kg. The molecule `CC(=O)OC1C/C(=C/C=C2\CCC[C@@]3(C)C2CCC3C2(C/C=C/C(O)(C(F)(F)F)C(F)(F)F)CC2)C[C@@H](OC(C)=O)C1` (some centres unmarked) [1,3-Di-O-acetyl-1,25-dihydroxy-20-cyclopropyl-23E-ene-26,27-hexafluoro-19-nor-cholecalciferol] had an IC50 in data set [1] of 0.00158 µM. In addition, in data set [2] (rat, in vivo, read-out: MTD), the MTD was 0.3 µg/kg. For the molecule `CC(=O)OC1C/C(=C/C=C2\CCC[C@@]3(C)C2CCC3C2(C/C=C\C(O)(C(F)(F)F)C(F)(F)F)CC2)C[C@@H](OC(C)=O)C1` (some centres unmarked) [1,3-Di-O-acetyl-1,25-dihydroxy-20-cyclopropyl-23Z-ene-26,27-hexafluoro-19-nor-cholecalciferol], half-maximal inhibition in data set [1] (IC50) required 0.2 µM. Further, in data set [2] (rat, in vivo, read-out: MTD), the MTD stood at 10 µg/kg. In the same order, the values of `C=C1/C(=C\C=C2/CCC[C@@]3(C)C2CCC3C2(CCCC(C)(C)O)CC2)CC(OC(C)=O)C[C@@H]1OC(C)=O` (some centres unmarked) [1,3-Di-O-acetyl-1,25-dihydroxy-20-cyclopropyl-cholecalciferol] are 0.398 µM and 30 µg/kg. In the same order, the values of `C=C1/C(=C\C=C2/CCC[C@@]3(C)C2CCC3C(C)CC#CC(C)(C)O)CC(OC(C)=O)C[C@@H]1OC(C)=O` (some centres unmarked) [1,3-Di-O-acetyl-1,25-dihydroxy-23-yne-cholecalciferol] are below 10000 µM and 1 µg/kg. In the same order, the values of `CC(=O)O[C@@H]1CC(=C/C=C2\CCC[C@]3(C)C([C@H](C)CCC(=O)C(C)(C)O)=CCC23)C[C@@H](OC(C)=O)C1` (some centres unmarked) [1,3-O-Diacetyl-1,25-Dihydroxy-16-ene-24-Keto-19-nor-Cholecalciferol] are 0.617 µM and 300 µg/kg.

As for `[2H]C([2H])([2H])C(O)(CCC[C@@H](CC#CC(O)(C(F)(F)F)C(F)(F)F)C1CCC2/C(=C/C=C3C[C@@H](O)C[C@H](O)C3)CCC[C@@]21C)C([2H])([2H])[2H]` (stereo partly drawn) [1,25-Dihydroxy-21(3-hydroxy-3-trifluoromethyl-4-trifluoro-butynyl)-26,27-hexadeutero-19-nor-20S-cholecalciferol], the IC50 in data set [1] is 31600 µM. Further, the MTD in data set [2] (rat, in vivo, read-out: MTD) was found to be 0.2 µg/kg. For `C=C1/C(=C\C=C2/CCC[C@@]3(C)C2CCC3C(CCCC(C)(C)O)CCC(O)C(C)(C)O)C[C@@H](O)C[C@@H]1O` (stereo partly drawn) [1,25-Dihydroxy-21-(2R,3-dihydroxy-3-methyl-butyl)-20R-Cholecalciferol], in that order: 24 µM and 30 µg/kg.

For `CC(C)(O)CCCC(CCCC(C)(C)O)[C@H]1CC[C@H]2/C(=C/C=C3C[C@@H](O)C[C@H](O)C3)CCC[C@]12C` [1,25-dihydroxy-21-(3-hydroxy-3-methylbutyl)-19-nor-cholecalciferol], the IC50 in data set [1] was 9.77 µM.

Consider `C=C1/C(=C\C=C2/CCC[C@]3(C)C(C4(C/C=C/C(O)(C(F)(F)F)C(F)(F)F)CC4)=CCC23)CC(O)C[C@@H]1O` (stereo partly drawn) [1α,25-Dihydroxy-16-ene-20-cyclopropyl-23,24-E-ene-26,27-hexafluoro-cholecalciferol], for which the IC50 in data set [1] is 1.58e-05 µM. Moreover, in data set [2] (rat, in vivo, read-out: MTD), the MTD was determined as 0.3 µg/kg. For `C=C1/C(=C\C=C2/CCC[C@]3(C)C(C4(C/C=C\C(O)(C(F)(F)F)C(F)(F)F)CC4)=CCC23)CC(O)C[C@@H]1O` (stereo partly drawn) [1α,25-Dihydroxy-16-ene-20-cyclopropyl-23,24-Z-ene-26,27-hexafluoro-cholecalciferol], in that order: 0.0794 µM and 1 µg/kg. As for `C=C1/C(=C\C=C2/CCC[C@]3(C)C(C4(CC#CC(O)(C(F)(F)F)C(F)(F)F)CC4)=CCC23)CC(O)C[C@@H]1O` (stereo partly drawn) [1α,25-Dihydroxy-16-ene-20-cyclopropyl-23,24-yne-26,27 hexafluoro cholecalciferol], the IC50 in data set [1] is 3550 µM. For the same molecule, the MTD in data set [2] (rat, in vivo, read-out: MTD) turned out to be 0.3 µg/kg. In turn, `C=C1/C(=C\C=C2/CCC[C@]3(C)C(C4(CCCC(C)(C)O)CC4)=CCC23)CC(O)C[C@@H]1O` (stereo partly drawn) [1α,25-Dihydroxy-16-ene-20-cyclopropyl-cholecalciferol] had an IC50 in data set [1] of 0.017 µM. In data set [2] (rat, in vivo, read-out: MTD), the MTD was determined as 1 µg/kg.
